Measurements from patent US20210179680A1, “POLYPEPTIDE, DERIVATIVES THEREOF, AND APPLICATION THEREOF IN PREPARATION OF DRUGS HAVING RESISTANCE TO PULMONARY FIBROSIS” (priority 2016, published 2021).
Bridge positions count the residues as written; N and C are the ends. Square brackets hold non-standard residues; d marks the D form. Peptide text beside a SMILES is read from it. S5 = C=CCCC[C@](C)(N)C(=O)O

How the values were obtained:
[1] = α-helix ratio of polypeptides by circular dichroism; assay type: physicochemical; conditions: PBS solution, 1 mg/mL
Method: The α-helix ratio of the polypeptide was measured by a circular dichromatograph (purchased from Jasco, Japan). The polypeptides MR2, S1, S2, S3, S4, S5, S6, S7, S8, S9, S10 and S11 prepared in Example 1 were dissolved in PBS solution, and the working concentration of the circular dichromatograph was adjusted to 1 mg/mL. […] Among them, the α-helix ratio refers to the percentage of the number of peptide segments of the polypeptide that maintains the alpha helix of the secondary structure in the peptide segments of the total polypeptide.

[2] = tested on: mice with bleomycin-induced pulmonary fibrosis; experiment: Survival rate of mice with bleomycin-induced pulmonary fibrosis; assay type: in vivo, C57BL/6 mice; conditions: twice a week
Method: Male C57BL/6 mice were fasted overnight, then anesthetized with 45 mg/kg sodium pentobarbital by injection intraperitoneally (i.p.), and intratracheally injected with bleomycin at a dose of 3 U/kg. The specific operation steps are as follows: cut the neck skin of the mouse with as little trauma as possible, expose the trachea with the assistance of elbow ophthalmic forceps, puncture the trachea and inject about 50 μL of bleomycin into the trachea with a microsyringe, rotate the mouse quickly and stand it upright for 5 minutes in order to make bleomycin evenly enter the left and right lobe, thereby constructing an animal model. The whole operation was performed at a surgical table at about […]. Mice in the sham operation group were intratracheally injected with an equal amount of physiological saline for injection.
The animal model with pulmonary fibrosis was prepared according to the method described in Example 2. The peptide therapy was started from the 10th day after modeling (the treatment groups are shown in Table 3), and the time was calculated from the 10th day after modeling to count the mortality rate. The death situation of each group of experimental animals was counted and calculated daily. […] The survival rate is the percentage of the number of mice that survived accounting for the number of mice in the whole group. Results are shown in FIG. 6-1, FIG. 6-2 and Table 4. […] In FIG. 6-1 and FIG. 6-2, “##” represents that P value is less than 0.01 when the survival rate of administration group was compared with that of the sham operation group; “*” represents that P value is less than 0.05 when the survival rate of administration group was compared with that of the bleomycin group; “**” represents that P value is less than 0.01 when the survival rate of administration group was compared with that of bleomycin group; and “i.p.” refers to intraperitoneal injection.
The animal model of pulmonary fibrosis was prepared according to the method described in Example 2. The polypeptide treatment was started from the 10th day after modeling (the treatment groups are shown in Table 9), and the time was calculated from the 10th day after modeling to count the mortality rate. The mortality rate of each group of experimental animals was recorded and calculated daily. If none of the animals in a group died, the survival rate of the group is 100%. If all the animals in a group died, the survival rate is 0%. […] In FIG. 12, “##” represents that P value is less than 0.01 when the survival rate of the administration groups were compared with that of the sham operation group; “*” represents that P value is less than 0.05 and “**” represents that P value is less than 0.01 when the survival rate of the administration groups were compared with bleomycin group.

TRB3 protein = target: T1, TRB3 protein (Homo sapiens, UniProt Q96RU7); experiment: Surface plasmon resonance (Biacore T200) binding of polypeptides to TRB3 protein; conditions: SPR, FIG. 4-1, 4-2 and Table 1
T1 construct: purchased RD
T1 sequence (Q96RU7 1-358): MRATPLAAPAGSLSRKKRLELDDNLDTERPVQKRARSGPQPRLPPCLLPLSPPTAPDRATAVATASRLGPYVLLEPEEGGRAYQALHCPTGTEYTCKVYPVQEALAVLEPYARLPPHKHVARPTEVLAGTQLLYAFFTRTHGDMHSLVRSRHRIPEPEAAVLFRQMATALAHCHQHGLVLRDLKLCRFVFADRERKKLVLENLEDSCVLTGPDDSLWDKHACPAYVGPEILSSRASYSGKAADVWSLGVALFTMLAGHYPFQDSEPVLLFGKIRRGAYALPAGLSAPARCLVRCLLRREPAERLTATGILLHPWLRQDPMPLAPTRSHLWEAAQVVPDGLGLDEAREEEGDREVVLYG
Method: The surface plasmon resonance experiment was carried out in a surface plasmon resonator Biacore T200, and the procedure was carried out in accordance with the instructions of the plasma resonator Biacore T200. Specific steps are as follows:
1. Purified TRB3 protein (purchased from RD) was coupled to a CMS chip (purchased from GE) by amidogen, and the unbound protein was eluted at a flow rate of 10 μL/min. The surface of the chip was equilibrated for 2 hours. Among them, the specific steps of amidogen coupling, elution and equilibration refer to the relevant instruction of GE's CMS chip.
2. 250 μL of the S1-S11 and MR2 polypeptide fragments prepared in Example 1 with different concentrations (800, 400, 200, 50, 12.5, 6.25, and 3.125 nM) were automatically injected, and the entire surface plasmon resonance experiment was carried out at 25° C. The buffer used was HBS-EP buffer [0.01 M HEPES, 0.15 M NaCl, 3 mM EDTA and 0.005% (w/w) surfactant TWEEN20]. Biacore T200's built-in analysis software was used to simulate the binding curves of different concentrations of peptides to TRB3.

[3] = target: T2, TRB3/MDM2 protein interaction (Homo sapiens, UniProt Q96RU7); experiment: Co-immunoprecipitation: inhibition of binding of MDM2 to TRB3 in BEAS-2B cells; assay type: cell-based; conditions: BEAS-2B cells with TRB3 expression plasmid, 1 mg/mL polypeptide, 12 hours, co-IP with MDM2 antibody
T2 construct: host or cells: BEAS-2B
T2 sequence (Q96RU7 1-358): T1 sequence (Q96RU7 1-358)
Method: 1. Human lung epithelial BEAS-2B cells (purchased from Institute of Basic Medical Sciences, Chinese Academy of Medical Sciences) were seeded in a 90 mm^2 culture dish. After the cells were adhered to the wall of culture dish, the TRB3 expression plasmid were transferred to the cells according to the method described in Example 5. After 24 hours, 1 mg/mL of the polypeptides MR2, S1, S2, S3, S4, S5, S6, S7, S8, S9, S10 or S11 prepared in Example 1 were added respectively, and the cells were incubated for 12 hours in a 37° C. incubator and then harvested.
2. Co-immunoprecipitation with MDM2 antibody was performed according to the method described in Example 3, followed by detection using TRB3 antibody.

[4] = Table 3 groups: 2 mg/kg i.p., 10th to 28th day after modeling
[5] = Table 9 groups (S19-S21): 2 mg/kg i.p., 10th to 28th day after modeling
[6] = Table 9 groups (S19-S21): 2 mg/kg i.p.

Molecule | α-helicity (%) [1] [%] | Survival rate (%) 7 days [2, 4] [%] | Survival rate (%) 14 days [2, 4] [%] | Survival rate (%) 21 days [2, 4] [%] | Survival rate (%) 28 days [2, 4] [%] | interaction with the TRB3 protein (in words) (TRB3 protein) | interaction of TRB3 and MDM2 protein (FIG. 5, in words) [3] | α-helix ratio compared with polypeptide MR2 (in words) [1] | Survival rate (%) 7 days [2, 5] [%] | Survival rate (%) 14 days [2, 6] [%] | Survival rate (%) 21 days [2, 6] [%] | Survival rate (%) 28 days [2, 6] [%]
CSCC[C@H](NC(=O)[C@H](CC(C)C)NC(=O)[C@@H](N)Cc1c[nH]cn1)C(=O)N[C@@H](C)C(=O)N[C@@H](CS)C(=O)N[C@@H](Cc1ccccc1)C(=O)N[C@H](C(=O)N[C@@H](CS)C(=O)N[C@@H](C)C(=O)N[C@@H](CCCCN)C(=O)N[C@@H](CCCCN)C(=O)N[C@@H](CC(C)C)C(=O)N[C@@H](CCCCN)C(=O)N[C@@H](CCCCN)C(=O)N[C@@H](CCCNC(=N)N)C(=O)O)[C@@H](C)O [MR2] (H-HLMACFTCAKKLKKR-OH; N-terminus and C-terminus assumed) | 0.0 | 100 | 93.33 | 73.33 | 66.67 | interacted with the TRB3 protein | interrupted |  |  |  |  | 
CSCC[C@@H]1NC(=O)[C@H](CC(C)C)NC(=O)[C@@](C)(N)CCCC=CCCC[C@@](C)(C(=O)N[C@@H](Cc2ccccc2)C(=O)N[C@H](C(=O)N[C@@H](CS)C(=O)N[C@@H](C)C(=O)N[C@@H](CCCCN)C(=O)N[C@@H](CCCCN)C(=O)N[C@@H](CC(C)C)C(=O)N[C@@H](CCCCN)C(=O)N[C@@H](CCCCN)C(=O)N[C@@H](CCCNC(=N)N)C(=O)O)[C@@H](C)O)NC(=O)[C@H](C)NC1=O [S1, S5-Leu-Met-Ala-S5-Phe-Thr-Cys-Ala-Lys-Lys-Leu-Lys-Lys-Arg] (H-[S5]LMA[S5]FTCAKKLKKR-OH; staple 1-5; N-terminus and C-terminus assumed) | 39.5 | 100 | 86.67 | 80 | 80 | interacted with the TRB3 protein | interrupted | significantly higher than that of polypeptide MR2 |  |  |  | 
CSCC[C@@H]1NC(=O)[C@@](C)(NC(=O)[C@@H](N)Cc2c[nH]cn2)CCCC=CCCC[C@@](C)(C(=O)N[C@H](C(=O)N[C@@H](CS)C(=O)N[C@@H](C)C(=O)N[C@@H](CCCCN)C(=O)N[C@@H](CCCCN)C(=O)N[C@@H](CC(C)C)C(=O)N[C@@H](CCCCN)C(=O)N[C@@H](CCCCN)C(=O)N[C@@H](CCCNC(=N)N)C(=O)O)[C@@H](C)O)NC(=O)[C@H](CS)NC(=O)[C@H](C)NC1=O [S2, His-S5-Met-Ala-Cys-S5-Thr-Cys-Ala-Lys-Lys-Leu-Lys-Lys-Arg] (H-H[S5]MAC[S5]TCAKKLKKR-OH; staple 2-6; N-terminus and C-terminus assumed) | 25.7 | 100 | 100 | 80 | 80 | interacted with the TRB3 protein | interrupted | significantly higher than that of polypeptide MR2 |  |  |  | 
CC(C)C[C@H](NC(=O)[C@H](CCCCN)NC(=O)[C@H](CCCCN)NC(=O)[C@H](C)NC(=O)[C@H](CS)NC(=O)[C@]1(C)CCCC=CCCC[C@](C)(NC(=O)[C@H](CC(C)C)NC(=O)[C@@H](N)Cc2c[nH]cn2)C(=O)N[C@@H](C)C(=O)N[C@@H](CS)C(=O)N[C@@H](Cc2ccccc2)C(=O)N1)C(=O)N[C@@H](CCCCN)C(=O)N[C@@H](CCCCN)C(=O)N[C@@H](CCCNC(=N)N)C(=O)O [S3, His-Leu-S5-Ala-Cys-Phe-S5-Cys-Ala-Lys-Lys-Leu-Lys-Lys-Arg] (H-HL[S5]ACF[S5]CAKKLKKR-OH; staple 3-7; N-terminus and C-terminus assumed) | 42.1 | 100 | 93.33 | 86.67 | 86.67 | interacted with the TRB3 protein | interrupted | significantly higher than that of polypeptide MR2 |  |  |  | 
S19: chimeric polypeptide Pep2-MR2, amino acid sequence SEQ ID NO: 19 (HLYVSPWGGHLMACFTCAKKLKKR; chimeric polypeptide Pep2-MR2 S19) |  |  |  |  |  |  |  |  | 100 | 100 | 90 | 90
S20: chimeric polypeptide TAT-MR2, amino acid sequence SEQ ID NO: 20 (YGRKKRRQRRRGGHLMACFTCAKKLKKR; chimeric polypeptide TAT-MR2 S20) |  |  |  |  |  |  |  |  | 100 | 91.67 | 75 | 75
S21: chimeric polypeptide Antp-MR2, amino acid sequence SEQ ID NO: 21 (RQIKIWFQNRRMKWKKGGHLMACFTCAKKLKKR; chimeric polypeptide Antp-MR2 S21) |  |  |  |  |  |  |  |  | 100 | 100 | 75 | 75
